Test [1] deals with D. immitis Slo-1 (Dirofilaria immitis, UniProt I0DFK5). Briefly: D. immitis Slo-1, action at a recombinant CHO cell line (membrane potential, FLIPR). In kind it is cell-based.
In test [2] the test system is Haemonchus contortus. Briefly: Haemonchus contortus larval mortality. Conditions: 120 h, read-out: activity (percentage of larval mortality).
Procedure: In Vitro Assay 7: Haemonchus contortus
Solvent: Dimethyl Sulfoxide
Approximately 40 larvae of the red stomach worm (Haemonchus contortus) are transferred into a test tube containing compound solution.
After 5 days the percentage of larval mortality is recorded. 100% efficacy means all larvae are killed, 0% efficacy means no larvae are killed.
Test [3] concerns Litomosoides sigmodontis third-stage larvae. Briefly: Litomosoides sigmodontis (LTMOSI L3) larval motility. The conditions noted are these: 72 h, read-out: EC50 (reduction of motility).
Procedure: In Vitro Assay 6: Litomosoides sigmodontis (LTMOSI L3)
10 Litomosoides sigmodontis third-stage larvae, which were freshly isolated from the pleural cavity of an infected rodent, were added to wells of a microtitre plate containing a nutrient medium and the test compound in DMSO. Compounds were tested in concentration-response assay in duplicate. Larvae exposed to DMSO and no test compounds were used as negative controls. Larvae were evaluated after 72 h of incubation with the compound. Efficacy was determined as the reduction of motility in comparison to the negative control. Based on the evaluation of a wide concentration range, concentration-response curves as well as EC50-values were calculated.
The subject of test [4] is Dirofilaria immitis. Briefly: Dirofilaria immitis (DIROIM L4) larval motility. The conditions noted are these: 72 h, read-out: EC50 (reduction of motility).
In test [5] the test system is Cooperia curticei. Briefly: Cooperia curticei larval mortality. The conditions noted are these: 120 h, read-out: activity (percentage of larval mortality).
Procedure: In Vitro Assay 6: Cooperia curticei
Solvent: Dimethyl Sulfoxide
Approximately 40 nematode larvae (Cooperia curticei) are transferred into a test tube containing the compound solution.
After 5 days percentage of larval mortality is recorded. 100% efficacy means all larvae are killed; 0% efficacy means no larvae are killed.
Test [6] concerns Dirofilaria immitis microfilariae. The test is described as follows: Dirofilaria immitis microfilariae (DIROIM L1) motility. The conditions noted are these: 72 h, read-out: EC50 (reduction of motility).
For test [7], the system named is Nippostrongylus brasiliensis. Briefly: Nippostrongylus brasiliensis (NIPOBR) adult worms, acetylcholine esterase readout. The conditions noted are these: read-out: activity (reduction of AChE compared to negative control); for inhibition at 1 µg/mL: at 1 μg/ml (1 ppm); for inhibition at 10 µg/mL: at 10 μg/ml (10 ppm). A digest of the protocol: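 Adult worms washed in saline with penicillin/streptomycin/amphotericin B, then incubated in medium with test compound (DMSO) at final 10 μg/ml (10 ppm) or 1 μg/ml (1 ppm). Acetylcholine esterase activity in a medium aliquot served as anthelmintic readout, compared with negative control.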

The target of test [8] is C. elegans Slo-1a (Caenorhabditis elegans, UniProt Q95V25). Conditions: pE50 (negative decadic logarithm of EC50), CHO cells expressing C. elegans Slo-1a; voltage sensitive dye, 70 mM KCl.
C. elegans Slo-1a, sequence (Q95V25 whole entry): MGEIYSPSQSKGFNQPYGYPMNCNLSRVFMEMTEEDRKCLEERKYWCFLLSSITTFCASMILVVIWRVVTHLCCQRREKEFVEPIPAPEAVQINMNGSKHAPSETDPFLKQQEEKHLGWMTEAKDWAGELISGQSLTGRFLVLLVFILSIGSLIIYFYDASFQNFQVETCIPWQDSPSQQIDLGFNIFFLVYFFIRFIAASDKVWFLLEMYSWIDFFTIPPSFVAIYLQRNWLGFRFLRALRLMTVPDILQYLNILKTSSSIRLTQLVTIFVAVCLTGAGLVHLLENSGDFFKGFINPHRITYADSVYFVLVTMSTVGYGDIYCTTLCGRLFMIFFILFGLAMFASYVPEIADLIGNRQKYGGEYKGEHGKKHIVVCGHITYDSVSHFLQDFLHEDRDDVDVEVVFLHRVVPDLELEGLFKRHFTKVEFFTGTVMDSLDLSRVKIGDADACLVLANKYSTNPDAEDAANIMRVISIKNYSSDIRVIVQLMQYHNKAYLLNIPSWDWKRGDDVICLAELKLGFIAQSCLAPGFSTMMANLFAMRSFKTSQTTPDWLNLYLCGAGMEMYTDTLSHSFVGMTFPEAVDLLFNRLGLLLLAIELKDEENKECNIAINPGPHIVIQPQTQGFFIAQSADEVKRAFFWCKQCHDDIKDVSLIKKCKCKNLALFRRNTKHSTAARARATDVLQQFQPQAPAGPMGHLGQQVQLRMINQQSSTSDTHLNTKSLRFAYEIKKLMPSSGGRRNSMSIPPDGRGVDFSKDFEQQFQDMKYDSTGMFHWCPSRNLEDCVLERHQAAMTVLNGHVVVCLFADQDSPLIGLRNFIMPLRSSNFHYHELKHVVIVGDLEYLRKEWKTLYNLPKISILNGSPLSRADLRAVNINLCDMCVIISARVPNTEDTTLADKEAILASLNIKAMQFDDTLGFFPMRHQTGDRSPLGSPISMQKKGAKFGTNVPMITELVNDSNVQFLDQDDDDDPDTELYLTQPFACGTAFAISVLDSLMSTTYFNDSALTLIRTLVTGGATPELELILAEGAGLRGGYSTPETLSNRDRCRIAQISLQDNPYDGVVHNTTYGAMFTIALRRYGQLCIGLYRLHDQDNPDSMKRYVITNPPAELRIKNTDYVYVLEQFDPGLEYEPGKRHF
Procedure: Generation of a Stable C. elegans CHO Cell Line
A CHO cell line was obtained from ATCC, code ATCC CRL-9096. […] The transfection solution included 300 μL OptiMEM (Life Technologies, Nr.: 31985), 2 μL (=6 μg) of plasmid DNA containing the C. elegans Slo 1a gene and 9 μL FugeneHD (Promega, Nr.: E2311), and was added to the cells prior to incubation for 48 hours at 37° C., 5% CO2. The transfection medium was exchanged for the selection medium which contains additional G418 (2 mg/ml, Invitrogen, Nr.: 10131) and the cells were seeded into 384 well plates (300 cells/well). After a few weeks, the remaining surviving cells were tested with a voltage sensitive dye (Membrane Potential Assay Kit, Molecular Devices Nr.: R8034) for K+ channel expression. Positive cell clones were purified by the limited dilution technique. For this the clone with the highest and most robust signal in the voltage sensitive dye assay was further subcloned (incubated) in 384 well plates (0.7 cells/well) in order to obtain clonal purity. This generated a final stable CHO cell line expressing the C. elegans Slo-1a.
Cells were cultured at 37° C. and 5% CO2 in MEMalpha with Gutamax I (Invitrogen, Nr.: 32571), supplemented with 10% (v/v) heat inactivated fetal bovine serum (Invitrogen, Nr.: 10500), G418 (1 mg/ml, Invitrogen, Nr.: 10131). Cells were detached using Accutase (Sigma, Nr.: A6964).
Membrane Potential Measurements
Laboratory compound testing was performed on 384-well microtiter plates (MTPs, Greiner, Nr.: 781092). 8000 cells/well were plated onto 384-well MTPs and cultured for 20 to 24 hours at 37° C. and 5% CO2. After removal of the cell culture medium, the cells were washed once with tyrode (150 mM NaCl, 0.3 mM KCl, 2 mM CaCl2, 1 mM MgCl2, 0.8 mM NaH2PO4, 5 mM Glucose, 28 mM Hepes, pH 7.4) and then loaded with the voltage sensitive dye of the Membrane Potential Assay Kit diluted in tyrode for 1 h at room temperature.
After starting the measurement of fluorescence using a FLIPR Tetra (Molecular Devices, Exc. 510-545 nm, Emm. 565-625 nm), test compounds were added followed by the addition of KCl tyrode (final assay concentration: 70 mM KCl, 2 mM CaCl2, 1 mM MgCl2, 0.8 mM NaH2PO4, 5 mM Glucose, 28 mM Hepes, pH 7.4, including the voltage sensitive dye). The measurement was completed after 7 minutes.
The data were evaluated by using the ActivityBase XLfit software (IDBS) for curve fitting and calculation of the half-maximal effective concentration (EC50) and are reported as negative decadic logarithm (pE50).

This note sets out measurements from patent US11485733B2, “Azaquinoline derivatives” (BAYER ANIMAL HEALTH GMBH, priority 2017, dated 2022).

pEC50: −log10 of the molar value. Values joined by “and” are separate entries in the source; they are usually repeats but may differ in a detail not shown here. Equal entries are not always repeated.

D. immitis Slo-1, sequence (I0DFK5 1-1119): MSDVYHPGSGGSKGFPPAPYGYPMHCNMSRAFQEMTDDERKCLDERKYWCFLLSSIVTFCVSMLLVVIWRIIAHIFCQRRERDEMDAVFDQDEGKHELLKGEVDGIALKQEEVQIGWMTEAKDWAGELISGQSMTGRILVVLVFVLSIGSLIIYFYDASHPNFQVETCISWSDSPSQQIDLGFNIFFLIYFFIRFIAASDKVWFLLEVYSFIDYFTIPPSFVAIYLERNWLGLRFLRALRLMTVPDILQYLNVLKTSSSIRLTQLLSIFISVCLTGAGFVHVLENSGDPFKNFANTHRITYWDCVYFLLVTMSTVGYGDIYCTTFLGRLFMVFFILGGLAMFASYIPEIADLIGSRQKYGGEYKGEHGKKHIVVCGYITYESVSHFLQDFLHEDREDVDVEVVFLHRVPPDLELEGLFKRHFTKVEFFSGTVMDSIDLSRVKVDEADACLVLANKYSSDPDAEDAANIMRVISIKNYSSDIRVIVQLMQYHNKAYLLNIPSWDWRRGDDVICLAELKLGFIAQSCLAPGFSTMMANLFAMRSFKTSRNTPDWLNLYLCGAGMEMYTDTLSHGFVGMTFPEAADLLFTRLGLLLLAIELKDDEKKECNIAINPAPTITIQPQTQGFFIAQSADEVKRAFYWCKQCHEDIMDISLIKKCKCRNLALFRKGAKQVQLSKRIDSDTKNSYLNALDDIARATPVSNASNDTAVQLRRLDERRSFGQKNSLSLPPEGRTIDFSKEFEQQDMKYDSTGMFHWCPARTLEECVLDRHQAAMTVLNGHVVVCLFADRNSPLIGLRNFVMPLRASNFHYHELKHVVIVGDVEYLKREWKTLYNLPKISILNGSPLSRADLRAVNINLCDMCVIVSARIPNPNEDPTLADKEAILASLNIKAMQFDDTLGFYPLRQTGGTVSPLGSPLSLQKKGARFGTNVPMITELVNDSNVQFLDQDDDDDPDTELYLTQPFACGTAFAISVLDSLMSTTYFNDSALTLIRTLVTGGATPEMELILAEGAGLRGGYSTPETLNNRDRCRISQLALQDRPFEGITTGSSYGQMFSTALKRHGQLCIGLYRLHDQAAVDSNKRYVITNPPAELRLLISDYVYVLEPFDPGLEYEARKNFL

`CN(C)c1c(C(=O)N[C@H]2CCOc3ccccc32)cnc2c(-c3cc(Cl)cc(Cl)c3)nccc12` [Example T1-1, 8-(3,5-Dichlorophenyl)-N-[(4S)-3,4-dihydro-2H-chromen-4-yl]-4-(dimethylamino)-1,7-naphthyridine-3-carboxamide]: the negative logarithm of the EC50 (pEC50) – broadly, −log10 of the EC50, conventionally taken in molar units – in test [1] was 6.50 to 7.50; in test [8] it was 7.50 to 8.50. For the same compound, the mortality at 20 ppm in test [2] and in test [5] was 100% throughout. The EC50 in test [3], in test [4] and in test [6] was less than 0.1 µg/mL throughout. Moreover, in test [5], the mortality (commonly the share of the test organisms that died) at 4 ppm is 100%. In addition, the inhibition at 1 µg/mL in test [7] is greater than 80%.

As to `O=C(N[C@H]1CCOc2ccccc21)c1cnc2c(-c3cccc(Cl)c3Cl)nccc2c1N1CCOCC1` [Example T1-4, 8-(2,3-Dichlorophenyl)-N-[(4S)-3,4-dihydro-2H-chromen-4-yl]-4-(morpholin-4-yl)-1,7-naphthyridine-3-carboxamide], the pEC50 is 6.50 to 7.50 in test [1] and 7.50 to 8.50 in test [8]. For the same compound, the EC50 in test [3], in test [4] and in test [6] was less than 0.1 µg/mL in each case. Besides, the mortality at 4 ppm in test [5] came to 100%. Further, the inhibition at 1 µg/mL in test [7] was greater than 80%. The inhibition at 10 µg/mL in test [7] is greater than 80%.

As for `O=C(N[C@H]1CCOc2ccccc21)c1cnc2c(-c3cc(F)cc(F)c3F)nccc2c1N1CCOCC1` [Example T1-5, N-[(4S)-3,4-dihydro-2H-1-benzopyran-4-yl]-4-(morpholin-4-yl)-8-(2,3,5-trifluorophenyl)-1,7-naphthyridine-3-carboxamide], the pEC50 in test [1] is 6.50 to 7.50; in test [8], 7.50 to 8.50. In addition, the results for the mortality at 20 ppm in test [2] and in test [5] were 80% and 100%, respectively. For the same compound, the EC50 in test [3], in test [4] and in test [6] was less than 0.1 µg/mL each time. Also, the mortality at 4 ppm in test [5] came out at 100%. Besides, the inhibition at 1 µg/mL in test [7] was greater than 80%. Moreover, the inhibition at 10 µg/mL in test [7] is greater than 80%.

As to `CN(C)c1c(C(=O)N[C@H]2CCOc3ccccc32)cnc2c(-c3cccc(Cl)c3Cl)ncc(F)c12` [Example T1-10, 8-(2,3-dichlorophenyl)-N-[(4S)-3,4-dihydro-2H-1-benzopyran-4-yl]-4-(dimethylamino)-5-fluoro-1,7-naphthyridine-3-carboxamide], the figures for the pEC50 in test [1] and in test [8] were 6.50 to 7.50 and 7.50 to 8.50, respectively. The EC50 in test [3], in test [4] and in test [6] was less than 0.1 µg/mL in each case. Also, the inhibition at 10 µg/mL in test [7] is greater than 80%.

Take `COc1ncc(-c2cccc(Cl)c2Cl)c2ncc(C(=O)N[C@H]3CCOc4ccccc43)c(N(C)C)c12` [Example T2-12, 8-(2,3-dichlorophenyl)-N-[(4S)-3,4-dihydro-2H-1-benzopyran-4-yl]-4-(dimethylamino)-5-methoxy-1,6-naphthyridine-3-carboxamide]: the pEC50 in test [1] was 6.50 to 7.50; in test [8], greater than 8.50. Besides, the EC50 in test [3], in test [4] and in test [6] was less than 0.1 µg/mL throughout. Further, the inhibition at 1 µg/mL in test [7] was greater than 80%. For the same compound, the inhibition at 10 µg/mL in test [7] was greater than 80%.

As to `CN(C)c1c(C(=O)N[C@H]2CCOc3ccccc32)cnc2c(-c3cc(Cl)cc(Cl)c3)ccnc12` [Example T3-1, 8-(3,5-Dichlorophenyl)-N-[(4S)-3,4-dihydro-2H-chromen-4-yl]-4-(dimethylamino)-1,5-naphthyridine-3-carboxamide], the pEC50 in test [1] is 7.50 to 8.50; in test [8] it was 7.50 to 8.50 and > 8.50. Also, the mortality at 20 ppm in test [2] and in test [5] was 100% throughout. Further, the EC50 in test [3], in test [4] and in test [6] was less than 0.1 µg/mL each time. The mortality at 4 ppm in test [5] came to 100%. The inhibition at 1 µg/mL in test [7] was greater than 80%.

Regarding `CN(C)c1c(C(=O)N[C@H]2CCOc3ccccc32)cnc2c(-c3cccc(Cl)c3Cl)ccnc12` [Example T3-3, 8-(2,3-Dichlorophenyl)-N-[(4S)-3,4-dihydro-2H-chromen-4-yl]-4-(dimethylamino)-1,5-naphthyridine-3-carboxamide], the pEC50 in test [1] is 7.50 to 8.50; in test [8], greater than 8.50. Besides, the mortality at 20 ppm in test [2] and in test [5] was 100% each time. The EC50 in test [3], in test [4] and in test [6] was less than 0.1 µg/mL in each case. Further, in test [5], the mortality at 4 ppm is 100%. Also, the inhibition at 1 µg/mL in test [7] is greater than 80%.

Take `CN(C)c1c(C(=O)N[C@H]2CCOc3ccccc32)cnc2c(-c3cccc(Cl)c3Cl)c(F)cnc12` [Example T3-17, 8-(2,3-dichlorophenyl)-N-[(4S)-3,4-dihydro-2H-1-benzopyran-4-yl]-4-(dimethylamino)-7-fluoro-1,5-naphthyridine-3-carboxamide]: the pEC50 in test [1] was 7.50 to 8.50. Also, the EC50 in test [3], in test [4] and in test [6] was less than 0.1 µg/mL in each case. Besides, in test [7], the inhibition at 1 µg/mL is greater than 80%. For the same compound, the inhibition at 10 µg/mL in test [7] is greater than 80%.

Take `O=C(N[C@H]1CCOc2ccccc21)c1cnc2c(-c3cc(F)cc(F)c3F)c(F)cnc2c1N1CCOCC1` [Example T3-20, N-[(4S)-3,4-dihydro-2H-1-benzopyran-4-yl]-7-fluoro-4-(morpholin-4-yl)-8-(2,3,5-trifluorophenyl)-1,5-naphthyridine-3-carboxamide]: in test [1], the negative logarithm of the EC50 (pEC50) was 7.50 to 8.50. In addition, the EC50 in test [3], in test [4] and in test [6] was less than 0.1 µg/mL each time. In addition, the inhibition at 1 µg/mL in test [7] is greater than 80%. The inhibition at 10 µg/mL in test [7] was greater than 80%.

For the compound `COc1c(C(=O)N[C@H]2CCOc3ccccc32)nnc2c(-c3cccc(Cl)c3Cl)cccc12` [Example T5-7, 8-(2,3-Dichlorophenyl)-N-[(4S)-3,4-dihydro-2H-chromen-4-yl]-4-methoxycinnoline-3-carboxamide], the pEC50 is 6.50 to 7.50 in test [1] and greater than 8.50 in test [8]. The values for the mortality at 20 ppm in test [2] and in test [5] were 90% and 100%, respectively. Also, the EC50 in test [3], in test [4] and in test [6] was less than 0.1 µg/mL in each case. For the same compound, in test [5], the mortality at 4 ppm was 100%. Besides, the inhibition at 1 µg/mL in test [7] is greater than 80%.
